Source: publication PMC9782626, “Copper(II) Complexes of 5–Fluoro–Salicylaldehyde: Synthesis, Characterization, Antioxidant Properties, Interaction with DNA and Serum Albumins” (Molecules, 2022)

Columns and labels:
[1] = Reduction of hydrogen peroxide; assay type: biochemical; conditions: compound 0.1 mM, 10 min, pH 7.4
From the text: For the above reasons, the antioxidant ability of 5–F–saloH and Cu(II) complexes 1–5 has been evaluated via their scavenging activity towards DPPH and ABTS radicals, as well as the ability to reduce H2O2, and in comparison with that of well-known antioxidant agents such as nordihydroguaiaretic acid (NDGA), butylated hydroxytoluene (ΒHΤ), 6–hydroxy–2,5,7,8–tetramethylchromane–2–carboxylic acid (trolox) and L–ascorbic acid (these are the most commonly used standard reference antioxidant agents). The DPPH-radical assay was developed in the 1950s and this method has been used to assess the antioxidant capacity of several metal complexes. The DPPH–scavenging ability of compounds has often been related to their ability to prevent ageing, cancer and inflammation. The ability of a compound to scavenge the cationic ABTS radicals (ABTS^+●) has been considered a measure of its total antioxidant activity. Further, hydrogen peroxide has the ability to penetrate biological membranes and, although it is not very reactive itself, it can sometimes be toxic since it may give rise to hydroxyl radicals in cells. For this reason, the removal of H2O2 is very important for the protection of living systems. When a compound is incubated with H2O2 using a peroxidase assay system, the loss of H2O2 can be measured.
S1 Antioxidant activity assay
The antioxidant activity of the compounds was evaluated via their ability to scavenge in vitro free radicals such as DPPH and ABTS and to reduce H 2O2. All the experiments were carried out at least in triplicate and the standard deviation of absorbance was less than 10% of the mean.
S1.1 Determination of the reducing activity of the radical DPPH […]
S1.3 Reduction of hydrogen peroxide
The ability of the com pounds to reduce hydrogen peroxide (H2O2) was est imated according to the method descr ibed in the literature [S2]. The reaction mixture contained 20 μL of each of the tested compounds (0.1 mM) and 5 μL H2O 2 solution (40 mM) in phosphate buffer (50 mM, pH = 7.4). The absorbance was measure d at 230 nm after 10 min.
The antioxidant activity (reduction of hydrogen peroxide) of the compounds wa s […]
expressed as the percentage decrease of t he init ial H 2O2 solution (H 2O2%). L-ascor b ic ac id (or vitamin C) was use d as a standard. […]
(§1) [DNA] = [DNA] + 1 (eq. S1) […]
(§2) where [DNA] is the concentration of DNA in base pa irs, εA = Aobsd/[compound ], εf = the extinction coefficient for the free compound and ε b = the extinction coefficient for the compound in the fully bound form. Kb is given by the ratio of slope to the y intercept in plots [DNA]/(εA-εf) versus[DNA].
S2.2CT DNA -binding studie s by viscosity measurements
The interaction of compounds with DNA has been evaluated via the study of the CT DNA viscosity ([DNA] = 0.1 mΜ) in a buffer solution (150 mM NaCl and 15 mM trisodium citrate at pH 7.0) in the presence of increasing amount of complexes (up to the value of r = 0.36). The obtained data are presented as (η/η 0)1/3 versus r, where η is the viscosity of DNA in the presence of the compound, and η0 is the viscosity of DNA alone in buffer solution.
S2.3 EB -displa cement studie s
The competition of the complexes with EB was investigated by fluorescence emission spectroscopy in order to examine whether the compounds can displace EB from its DNA-EB conjugate. The CT DNA-EB complex was formed by pre-treating 20 μM EB and 26 μM CT DNA in buffer (150 mM NaCl and 15 mM trisodium citrate at pH = 7.0).
The possible displacement of EB by the compounds and su bseq uently t he ir intercalating effect was studied by the stepwise addition of a certain amount of the solution of each

CT DNA = assay: Binding study with CT DNA by UV-vis spectroscopy; design: species or system calf
Description: Initially, the UV–vis spectra of complexes 1–5 (2.5 × 10^−5 – 1 × 10^−4 M) were recorded in the presence of incremental amounts of CT DNA (Figure 4), and the changes of the λmax of the bands observed in the spectra of the complexes were monitored as a means to study the interaction between complexes and CT DNA [50] and to calculate the corresponding DNA-binding constants (Kb). As observed, in the UV–vis spectra of the complexes, at least two bands were observed: band I in the range 314–339 nm and band II in the region 380–428 nm. […] These features indicate the interaction of the complexes with CT DNA [51], but may not provide sufficient information to reveal the possible interaction mode. Therefore, for the elucidation of the CT DNA interaction mode, further experiments involving DNA-viscosity measurements and competitive studies with EB were performed. […]
S2Binding studies with CT DNA
The interaction of the compounds with CT DNA was studied by UV-vis spectroscopy, viscosity measurements a nd via competit ive stud ie s with EB by fl uorescence […]
S2.1 Binding study with CT DNA by UV -vis spectroscopy
The interaction of the compounds with CT DNA has been studied by UV-vis spectroscopy in order to investigate the possible binding modes to CT DNA and to calculate the DNA-binding constants (Kb). The Kb constants (in M-1) were determined by the Wolfe-Shimer equation (eq. S1) [S3] and the plots [DNA]/(εA-εf) versus [DNA] using the UV-vis spectra of the compounds (20 -100 μM) recorded for a constant concentration with increasing concentrations of CT DNA for diverse [complex]/[DNA] mixing ratios (= r ).
Control experiments with DMSO were performed and no changes in the spectra of CT DNA were observed. […]
as §1
as §2, with “versus[DNA]. […]” for “versus[DNA].”

[2] = first UV band listed in the cell (295–334 nm)
[3] = second UV band listed in the cell (330–421 nm)

SMILES | H2O2%, H2O2–reducing activity [1] | ΔA/Aο, percentage of hyper-/hypo-chromism upon addition of CT DNA (CT DNA; [2]) | ΔA/Aο, percentage of hyper-/hypo-chromism upon addition of CT DNA (CT DNA; [3]) | ΔA/Aο, percentage of hyper-/hypo-chromism upon addition of CT DNA (CT DNA; third UV band listed in the cell (405 nm))
O=Cc1cc(F)ccc1[O-].O=[N+]([O-])[O-].[Cu+2].c1ccc(-c2ccccn2)nc1 [Complex 5, [Cu(5–F–salo)(bipy)(NO3)]] | 69.21 ± 1.10% | −72% | −28% | –
O=Cc1cc(F)ccc1[O-].[Cl-].[Cu+2].c1ccc(Nc2ccccn2)nc1 [Complex 2, [Cu(5–F–salo)(bipyam)Cl]] | 99.69 ± 0.29% | −12% | > +50% | –
O=Cc1cc(F)ccc1[O-].O=[N+]([O-])[O-].[Cu+2].c1cnc2c(c1)ccc1cccnc12 [Complex 4, [Cu(5–F–salo)(phen)(NO3)]] | 25.90 ± 0.76% | −38% | −29% | +44%
O=Cc1cc(F)ccc1[O-].O=Cc1cc(F)ccc1[O-].[Cu+2] [Complex 1, [Cu(5–F–salo)2]] | 71.61 ± 0.35% | −34% | −20% | –
CO.Cc1ccc2ccc3ccc(C)nc3c2n1.O=Cc1cc(F)ccc1[O-].[Cl-].[Cu+2] [Complex 3, [Cu(5–F–salo)(neoc)Cl].CH3OH] | 26.10 ± 0.66% | −41% | +34% | –
